Consider 24 compounds from patent US7977372B2, “Ortho aminoamides for the treatment of cancer” (Hoffmann-La Roche Inc., priority 2009, dated 2011).

Experiment [1] has as its system histone deacetylase (HeLa nuclear extract). Description: HeLa extract HDAC fluorometric assay. The class given is biochemical. To be noted: compound at 30 micromolar; relative to SNDX-275. The protocol:
Novel compounds were tested for their ability to inhibit histone deacetylase using an in vitro deacetylation assay. The enzyme source for this assay was HeLa nuclear extract. The substrate consisted of a commercial product containing an acetylated lysine side chain (both HeLa extract and substrate are available commercially from BIOMOL Research Laboratories, Inc., Plymouth Meeting, Pa.). After deacetylation of the substrate by incubation with HeLa nuclear extract, subsequent exposure to a developing reagent produces a fluorophore that is directly proportional to the level of deacetylation. Using the substrate concentration at the Km for the HeLa nuclear extract, the deacetylation assay was performed in the presence of novel compounds at 30 micromolar and the percent enzyme inhibition relative to a known reference HDAC inhibitor (SNDX-275) was determined. […] Inhibitory activity for specific representative compounds can be found in Table 19.

For experiment [2], the system named is SGC-7901 gastric cancer cells. In words: Growth inhibition of cancer cell lines (MTS / WST assay), SGC-7901. The class given is cell-based. To be noted: for IC90: read-out: SGC GI90. The protocol: (§1) The novel compounds of the present invention were tested for their ability to inhibit growth of various cancer cell lines using in vitro growth inhibition assays described below.
(§2) Cells were seeded in 96-well culture plates (200 microliters/well at different seeding concentrations depending on cell type) and incubated overnight at 37 degrees Celsius in 5% CO2. After adding compound dilutions to the cells (DMSO concentration kept below 0.5%), the cells were incubated at 37 degrees Celsius in 5% CO2 for 72 hours. The effects on proliferation were determined by addition of MTS reagent (Promega) according to the manufacturer's instruction, followed by incubation for 2 hours at 37 degrees Celsius in 5% CO2, and finally recording the absorbance at 490 nm using an ELISA plate reader.
(§3) Similar to MTS assay except that the developer is the CCK-8 reagent (Dojindo) and the plate reader is set to 450 nm absorbance.
(§4) GI50 and GI90 values against SGC-7901 gastric cancer cells and SMMC-7721 liver cancer cells for specific representative compounds can be found in Table 19.

Experiment [3] concerns SMMC-7721 liver cancer cells. In words: Growth inhibition of cancer cell lines (MTS / WST assay), SMMC-7721. The format is cell-based. To be noted: for IC90: read-out: SMMC GI90. The protocol: as §1, §2, §3, §4

As to `Cc1ccc(NC(=O)C2CN(C)CC2c2ccc(/C=C/C(=O)Nc3ccccc3N)cc2)cc1` (stereo not drawn) [Example 5-19], in experiment [1], the “HD RP30 (relative inhibitory potency compared with SNDX-275)” value amounted to 1.63. The GI50 in experiment [2] (Homo sapiens, SGC-7901, 72 h) came to 0.49 µM; in experiment [3] (Homo sapiens, SMMC-7721, 72 h), 0.67 µM. The IC90 in experiment [2] (Homo sapiens, SGC-7901, 72 h) was 1.79 µM; in experiment [3] (Homo sapiens, SMMC-7721, 72 h) it was 1.75 µM.
Take `CN1CC(C(=O)Nc2ccc(F)c(Cl)c2)C(c2ccc(/C=C/C(=O)Nc3ccccc3N)cc2)C1` (stereo not drawn) [Example 5-30]: in experiment [1], the “HD RP30 (relative inhibitory potency compared with SNDX-275)” value came to 1.97. The GI50 in experiment [2] (Homo sapiens, SGC-7901, 72 h) was 0.34 µM; in experiment [3] (Homo sapiens, SMMC-7721, 72 h), 0.71 µM. For the same compound, the IC90 is 1.56 µM in experiment [2] (Homo sapiens, SGC-7901, 72 h) and 2.34 µM in experiment [3] (Homo sapiens, SMMC-7721, 72 h).
The matching figures for `COc1ccc(NC(=O)C2CN(C)CC2c2ccc(/C=C/C(=O)Nc3ccccc3N)cc2)cc1` (stereo not drawn) [Example 5-33]: 1.49, 0.42 µM, 0.87 µM, 1.62 µM and 2.21 µM.
The matching figures for `CC(C)(C)N1CC(C(=O)Nc2ccc(F)cc2)C(c2ccc(/C=C/C(=O)Nc3ccccc3N)cc2)C1` (stereo not drawn) [Example 36-5]: 1.70, 0.31 µM, 0.65 µM, 1.08 µM and 1.84 µM.
For the compound `CN1CC(C(=O)Nc2ccc(F)cc2)C(c2ccc(/C=C/C(=O)Nc3ccccc3N)cc2F)C1` (stereo not drawn) [Example 85-4], the “HD RP30 (relative inhibitory potency compared with SNDX-275)” value in experiment [1] came to 1.84. Besides, in experiment [2] (Homo sapiens, SGC-7901, 72 h), it took 0.47 µM to inhibit growth by half (GI50) and the IC90 is 2.4 µM. Besides, in experiment [3] (Homo sapiens, SMMC-7721, 72 h), the GI50 was 1.2 µM and the IC90 amounted to 3.4 µM.
The matching figures for `CN1CC(C(=O)Nc2ccc(Br)cc2)C(c2ccc(/C=C/C(=O)Nc3ccccc3N)cc2)C1` (stereo not drawn) [Example 5-20]: 1.62, 0.5 µM, 1.3 µM, 0.77 µM and 1.62 µM.
The matching figures for `CC(C)N1CC(C(=O)Nc2ccc(Cl)cc2)C(c2ccc(/C=C/C(=O)Nc3ccccc3N)cc2)C1` (stereo not drawn) [Example 16-17]: 1.53, 0.44 µM, 1.89 µM, 0.9 µM and 2.45 µM.
Regarding `CN1CC(c2ccc(/C=C/C(=O)Nc3ccccc3N)cc2)C(c2ncc(-c3ccccc3)[nH]2)C1` (stereo not drawn) [Example 11-2], in experiment [1], the “HD RP30 (relative inhibitory potency compared with SNDX-275)” value came out at 1.64. In experiment [2] (Homo sapiens, SGC-7901, 72 h), the GI50 was determined as 0.42 µM and the IC90 was 1.99 µM. Moreover, in experiment [3] (Homo sapiens, SMMC-7721, 72 h), the GI50 was found to be 0.7 µM and the IC90 was 1.69 µM.
`CC(C)(O)CN1CC(C(=O)Nc2ccc(Cl)cc2)C(c2ccc(/C=C/C(=O)Nc3ccccc3N)cc2)C1` (stereo not drawn) [Example 31-8]: the “HD RP30 (relative inhibitory potency compared with SNDX-275)” value in experiment [1] came out at 1.48. Also, in experiment [2] (Homo sapiens, SGC-7901, 72 h), growth was halved (GI50) at 0.54 µM and the IC90 was 1.38 µM. In experiment [3] (Homo sapiens, SMMC-7721, 72 h), the GI50 came to 0.76 µM and the IC90 worked out at 2.09 µM.
With `CC(C)(C)N1CC(C(=O)Nc2ccc(Cl)cc2)C(c2ccc(/C=C/C(=O)Nc3ccccc3N)cc2)C1` (racemic) [Example 36, rac-(trans-3,4)-4-{4-[2-(2-Amino-phenylcarbamoyl)-vinyl]-phenyl}-1-tert-butyl-pyrrolidine-3-carboxylic acid (4-chloro-phenyl)-amide], the “HD RP30 (relative inhibitory potency compared with SNDX-275)” value in experiment [1] amounted to 1.75. For the same compound, in experiment [2] (Homo sapiens, SGC-7901, 72 h), the concentration for 50% growth inhibition (GI50) was determined as 0.49 µM and the IC90 was 1.53 µM. Also, in experiment [3] (Homo sapiens, SMMC-7721, 72 h), halving of growth (GI50) required 0.96 µM and the IC90 was found to be 3.29 µM.
Turning to `CN1CC(C(=O)Nc2ccccc2)C(c2ccc(/C=C/C(=O)Nc3ccccc3N)cc2)C1` (stereo not drawn) [Example 5-32], the “HD RP30 (relative inhibitory potency compared with SNDX-275)” value in experiment [1] is 1.58. In experiment [2] (Homo sapiens, SGC-7901, 72 h), the GI50 was 0.41 µM and the IC90 turned out to be 2.04 µM. Further, in experiment [3] (Homo sapiens, SMMC-7721, 72 h), growth was halved (GI50) at 0.71 µM and the IC90 was found to be 2.42 µM.
The matching figures for `CCN1CC(C(=O)Nc2ccc(Cl)cc2)C(c2ccc(/C=C/C(=O)Nc3ccccc3N)cc2)C1` (stereo not drawn) [Example 21-6]: 1.48, 0.4 µM, 1.21 µM, 0.8 µM and 2.52 µM.
The matching figures for `CN1CC(c2ccc(/C=C/C(=O)Nc3ccccc3N)cc2)C(c2nc3ccccc3[nH]2)C1` (stereo not drawn) [Example 11-3]: 1.62, 0.32 µM, 1.62 µM, 0.68 µM and 2.2 µM.
The matching figures for `CN1C[C@@H](C(=O)Nc2ccc(F)cc2)[C@H](c2ccc(/C=C/C(=O)Nc3ccccc3N)cc2)C1` [Example 5-8]: 1.95, 0.31 µM, 1.14 µM, 0.78 µM and 3.96 µM.
For `CN1CC(C(=O)Nc2ccc(F)cc2)C(c2ccc(/C=C/C(=O)Nc3ccccc3N)nc2)C1` (stereo not drawn) [Example 73-2], in experiment [1], the “HD RP30 (relative inhibitory potency compared with SNDX-275)” value turned out to be 1.36. In addition, in experiment [2] (Homo sapiens, SGC-7901, 72 h), the GI50 was 0.49 µM and the IC90 was 2.01 µM. Further, in experiment [3] (Homo sapiens, SMMC-7721, 72 h), the GI50 stood at 1.44 µM and the IC90 turned out to be 4.52 µM.
Regarding `Nc1ccccc1NC(=O)/C=C/c1ccc(C2CN(C3CCOCC3)CC2C(=O)Nc2ccc(Cl)cc2)cc1` (stereo not drawn) [Example 16-20], the “HD RP30 (relative inhibitory potency compared with SNDX-275)” value in experiment [1] is on record as 1.90. For the same compound, in experiment [2] (72 hours), the GI50 was 0.45 µM and the “SGC GI90” value stood at 1.23 µM. For the same compound, in experiment [3] (72 hours), the GI50 is 0.83 µM and the “SMMC GI90” value was 2.96 µM.
For the compound `Nc1ccccc1NC(=O)/C=C/c1ccc(C2CN(CCF)CC2C(=O)Nc2ccc(Cl)cc2)cc1` (racemic) [Example 21, rac-(trans-3,4)-4-{4-[2-(2-Amino-phenylcarbamoyl)-vinyl]-phenyl}-1-(2-fluoro-ethyl)-pyrrolidine-3-carboxylic acid (4-chloro-phenyl)-amide], the “HD RP30 (relative inhibitory potency compared with SNDX-275)” value in experiment [1] amounted to 1.09. For the same compound, in experiment [2] (Homo sapiens, SGC-7901, 72 h), it took 0.42 µM to inhibit growth by half (GI50) and the IC90 was found to be 1.38 µM. Further, in experiment [3] (Homo sapiens, SMMC-7721, 72 h), it took 0.91 µM to inhibit growth by half (GI50) and the IC90 stood at 2.63 µM.
The matching figures for `CC(C)N1CC(C(=O)Nc2ccc(Br)cc2)C(c2ccc(/C=C/C(=O)Nc3ccccc3N)cc2)C1` (stereo not drawn) [Example 16-16]: 2.03, 0.34 µM, 0.89 µM, 0.7 µM and 1.62 µM.
The matching figures for `CN1CC(c2ccc(/C=C/C(=O)Nc3ccccc3N)cc2)C(c2nc3cc(Cl)ccc3[nH]2)C1` (stereo not drawn) [Example 11-4]: 1.70, 0.37 µM, 1.71 µM, 0.64 µM and 1.81 µM.
The matching figures for `Nc1ccccc1NC(=O)/C=C/c1ccc(C2CN(C3CCOCC3)CC2C(=O)Nc2ccc(Cl)cc2)cc1` (stereo not drawn) [Example 16-2]: 1.36, 0.41 µM, 1.17 µM, 0.75 µM and 1.87 µM.
For the compound `CN1CC(c2ccc(/C=C/C(=O)Nc3ccccc3N)cc2)C(c2nc3cc(F)ccc3[nH]2)C1` (stereo not drawn) [Example 11-6], the “HD RP30 (relative inhibitory potency compared with SNDX-275)” value in experiment [1] stood at 1.79. Besides, the GI50 turned out to be 0.35 µM in experiment [2] (Homo sapiens, SGC-7901, 72 h) and 0.92 µM in experiment [3] (Homo sapiens, SMMC-7721, 72 h). The IC90 in experiment [2] (Homo sapiens, SGC-7901, 72 h) came out at 1.08 µM; in experiment [3] (Homo sapiens, SMMC-7721, 72 h), 3.04 µM.
Consider `Cc1cc(NC(=O)C2CN(C)CC2c2ccc(/C=C/C(=O)Nc3ccccc3N)cc2)ccc1Cl` (stereo not drawn) [Example 5-29], for which the “HD RP30 (relative inhibitory potency compared with SNDX-275)” value in experiment [1] worked out at 1.65. Further, the GI50 worked out at 0.32 µM in experiment [2] (Homo sapiens, SGC-7901, 72 h) and 0.64 µM in experiment [3] (Homo sapiens, SMMC-7721, 72 h). Moreover, the IC90 in experiment [2] (Homo sapiens, SGC-7901, 72 h) is 1.04 µM; in experiment [3] (Homo sapiens, SMMC-7721, 72 h) it was 1.39 µM.
The matching figures for `CC(C)N1CC(C(=O)Nc2ccc(F)cc2)C(c2ccc(/C=C/C(=O)Nc3ccccc3N)cc2)C1` (stereo not drawn) [Example 16-15]: 1.51, 0.29 µM, 0.72 µM, 1.24 µM and 2.02 µM.
The matching figures for `Cc1cc(NC(=O)C2CN(C)CC2c2ccc(/C=C/C(=O)Nc3ccccc3N)cc2)ccc1F` (stereo not drawn) [Example 5-27]: 1.61, 0.28 µM, 0.57 µM, 1.12 µM and 1.6 µM.
